Results: PMC9175088 (Drug Metabolism Letters, 2021)

Key:
[1] = Enflicoxib metabolism in intestinal microsomes
[2] = Metabolism of enflicoxib and E-6132 in cryopreserved hepatocytes
[3] = Enflicoxib metabolism in intestinal microsomes; remark: listed apart in the source
[4] = Secondary phase I metabolism in liver microsomes, unlabeled substrates; type: in vitro ADME; details: rat liver microsomes, positive control 10 µM; experiments with M8 as substrate
[5] = enantiomers of enflicoxib; cited from earlier work
[6] = Metabolism of enflicoxib and E-6132 in cryopreserved hepatocytes; details: male, Wistar, rat
[7] = dog hepatocytes, positive control 10 µM

Compound `C[C@]12CC[C@H]3[C@@H](CCC4=CC(=O)CC[C@@]43C)[C@@H]1CC[C@@H]2O` [Testosterone, testosterone] has a K ([1]; dog intestinal microsomes, positive control 10 µM) of -0.0195, a half-life at 10 µM ([1]; male, beagle, dog, intestinal microsomes, pH 7.4) of 35.5 min and a K [2, 7] of -0.0914. It also gave a t1/2 [2, 7] of 7.6 min, a half-life at 10 µM ([3]; male, Sprague-Dawley, rat, intestinal microsomes, pH 7.4) of 133 min and a K ([3]; rat intestinal microsomes, positive control 10 µM) of -0.0052. The K [4] was -0.3314.

In the case of `NS(=O)(=O)c1ccc(N2N=C(C(F)(F)F)C[C@@H]2c2ccc(F)cc2F)cc1` [Metabolite E-6231, (R)-(+)-enflicoxib], the “Pharmacological activity of enantiomer” value [5] is listed as “negligible”.

For `Cc1cc(=O)oc2cc(O)ccc12` [7-hydroxy-4-methylcoumarin], the half-life at 10 µM [6] was < 5.9 min, the K [2, 7] was -0.0658 and the half-life at 10 µM ([2]; male, beagle, dog, cryopreserved hepatocytes) was 10.5 min.

In the case of `NS(=O)(=O)c1ccc(N2N=C(C(F)(F)F)C[C@H]2c2ccc(F)cc2F)cc1` [Metabolite E-6232, (S)-(-)-enflicoxib], the “Pharmacological activity of enantiomer” value [5] is given as “active enantiomer”.
